Reference: patent US20220273679A1, “METHODS AND COMPOSITIONS FOR TREATING AND PREVENTING DAMAGE TO SKIN” (New York Society for the Relief of the Ruptured and …, priority 2019, published 2022)

Tests used:
[1] = system: WT mice; experiment: UVR-induced keratinocyte apoptosis and skin injury in WT mice treated topically before UVR; format: in vivo, mouse; details: 4 mM topically prior to UVR, FIGS. 12B-12E
[2] = system: Primary murine keratinocytes; experiment: Mouse keratinocyte-LC co-culture exposed to UVR (activated caspase-3+ keratinocytes); format: cell-based; details: keratinocytes pre-treated with 2 μM for 30 minutes before LC co-culture and UVR
Experimental: FIGS. 13A and 13B. Effect of human LCs on human keratinocytes without UVR and further characterization of in vitro LC-keratinocyte EGFR signaling (13A) Effect of human LCs on human keratinocytes without UVR. Primary human keratinocytes were co-cultured with or without human LCs and activated caspase-3+ keratinocytes were enumerated 24 hours later (n=3 human LC donors). Validation of siRNA-mediated EGFR knockdown in primary murine keratinocytes was performed. Keratinocytes were treated with control or EGFR-targeted siRNAs (#1 and #2) and EGFR expression was measured 5 days later (on the day of UVR exposure) by flow cytometry. […]
For immunofluorescence staining of cell culture experiments, polystyrene chamber slides (Lab-Tek) with cultured keratinocytes were washed with PBS, fixed with 4% paraformaldehyde for 20 minutes, permeabilized and blocked with Triton-X (0.2%) and BSA (1%), and stained as indicated. Activated caspase-3+ and total DAPI+ cells were quantified with ImageJ software by a blinded observer and the percent of activated caspase-3+ Langerin− cells (keratinocytes) and activated caspase-3+ Langerin+ cells (LCs) was calculated.
Primary mouse keratinocyte cultures were prepared from mouse tail skin as described (23). […] The co-cultures rested overnight and were then exposed to UVR and analyzed 24 hours later. […]

[3] = system: ADAM17; details: mouse embryonic fibroblasts; cited from earlier work
[4] = system: ADAM17; experiment: Ex vivo ADAM17 activity assay by TNFR1 cleavage, sorted murine LCs; format: cell-based, mouse; details: 25 ng/mL, 45 minutes
Experimental: FIGS. 6A-6D. UVR directly activates LC ADAM17 and EGFR ligand release. (6A, 6B) Effect of UVR on ADAM17 activity in sorted murine (6A) and human (6B) LCs as measured by change in TNFR1 mean fluorescence intensity (MFI) 45 minutes after the indicated treatments. PMA is a positive control. (n=5-6 mice; n=4 human donors). (6C,6D) Conditioned supernatants from murine (6C) or human LCs (6D) were added to A431 EGFR indicator cells and phosphoEGFR was measured 10 minutes later by flow cytometry. Murine LC supernatants were from (6A); human LC supernatants were from cells treated similarly to (6B), except that antibody was washed out prior to UVR (see Example 8). Left: Representative histogram. Right: Quantification relative to cells treated with control WT LC supernatants (6C) or control IgG-treated LC supernatants (6D). […]
To measure ADAM17 activity, we quantified the level of cell-surface tumor necrosis factor receptor 1 (TNFR1), a substrate for ADAM17 (31). […]
Sorted mouse LCs were plated in a 96-well plate at 20,000-25,000 cells/well in RPMI 1640 supplemented with L-glutamine, penicillin/streptomycin, and HEPES buffer. The cells were treated with phorbol 12-myristate 13-acetate (PMA) (Sigma-Aldrich) at 25 ng/mL or UVR (500 J/m2) and analyzed 45 minutes later. […] ADAM17 activity is expressed as the percent change in TNFR1 mean fluorescence intensity (MFI) relative to that of untreated LCs. […]

[5] = system: epithelial wound healing; details: used at 0.1 μg/ml; cited from earlier work

Compound: C=CC(=O)Nc1ccc2ncnc(Nc3cccc(Br)c3)c2c1 [PD168393]
- UVR-induced keratinocyte apoptosis and skin injury [1]: increased
- protective effect of LCs against UVR-induced keratinocyte apoptosis [2]: abolished the protective effect of LCs

Compound: Lysophosphatidic acid [LPA, reference compound]
- ADAM17 activation [3]: activated

Compound: Thrombin
- ADAM17 activation [3]: activated

Compound: TNFα
- ADAM17 activation [3]: activated

Compound: CCCCCCCCCCCCCC(=O)O[C@@H]1[C@@H](C)[C@@]2(O)[C@@H](C=C(CO)C[C@]3(O)C(=O)C(C)=C[C@@H]23)[C@@H]2C(C)(C)[C@]12OC(C)=O [PMA, phorbol 12-myristate 13-acetate]
- LC cell-surface TNFR1 (ADAM17 activity) [4]: reduced

Compound: TGFα: EGFR ligand
- epithelial wound healing [5]: enhance
